# Where “and” joins values, the source holds several entries; their conditions need not be identical. Identical values can stand only once.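 Each compound was tested at five concentrations against cells in 96-well plates for 48 hours. GI50 = concentration required for 50% inhibition of growth. TGI marks complete inhibition of growth.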 Where a SMILES comes first, the peptide text is derived from it. [ ]: non-standard residue; d: D form. The star is where a group is joined. Decanoyl = CCCCCCCCCC(=O)*; Leu(ol) = CC(C)C[C@H](N)CO; Iva = CC[C@](C)(N)C(=O)O; Aib = CC(C)(N)C(=O)O
# System: MDA-MB-468 breast
# Assay: growth of human tumour cells (NCI), 48 h
SMILES,GI50,TGI
COC1=CC(=O)c2c(ccc3ncnc(N)c23)C1=O,1140 nM,2770 nM
N#Cc1c(-c2ccc(Cl)cc2)csc1NC(=O)Nc1ccc(Cl)c(C(F)(F)F)c1,186 nM,1510 nM
NS(=O)(=O)c1ccc(N=Cc2c(O)[nH]c3ccc4ncsc4c23)cc1,488 nM and 472 nM,1140 nM and 1080 nM
O=C(/C=C/c1cc2ccccc2[nH]c1=O)c1ccc(Cl)cc1,17400 nM,35200 nM
COc1ncc(-c2ccc3nccc(C#CCCCCC(=O)O)c3c2)cc1NS(=O)(=O)c1ccc(F)cc1F,132 nM,1900 nM
COc1ccc(-c2nnc(COc3ccc(Cl)cc3Cl)o2)cc1OC,7320 nM,54400 nM
C=C1C(=O)O[C@H]2[C@H]1CC/C(CNC(=O)c1cccc3ccccc13)=C\CC[C@@]1(C)O[C@@H]21,1380 nM,4240 nM
C1=C/COCc2cc(ccc2OCCN2CCCC2)Nc2nccc(n2)-c2cccc(c2)COC/1,396 nM and 562 nM,1480 nM and 2010 nM
CCOC(=O)c1ccc2c(c1)[n+](=O)c(C(=O)C1CCCS1)c(C(F)(F)F)n2[O-] (centres undefined),250 nM,967 nM
Cn1c(=O)n(CCCO)c(=O)c2c1nc(Oc1cccc(OC(F)(F)F)c1)n2Cc1ccc(Cl)cc1,12900 nM,29900 nM
O=C(Nc1cccc(-n2ccc3c(NC(=O)c4ccccc4)nccc32)c1)Nc1ccc(Cl)c(C(F)(F)F)c1,257 nM,3360 nM
C=CCn1c(SCC(=O)Nc2ccc(C(=O)/C=C/c3cc(OC)c(OC)c(OC)c3)cc2)nnc1-c1ccc(Cl)cc1,3470 nM,26600 nM
C[CH2][Sn]([CH2]C)([O]C(=O)c1cccc(OC)c1)[O][Sn]([CH2]C)([CH2]C)[O]C(=O)c1cccc(OC)c1,5530 nM,20800 nM
CCNCCCn1c2c(c3ccc(F)cc3c1=O)C(=O)c1cc(OC)cnc1-2,139 nM,312 nM
C#Cc1ccc(NC(=O)c2ccc(/C=C/C(=O)c3nccn3C)cc2)c(F)c1,1240 nM,4420 nM
O=C(Nc1ccc(-n2cc(-c3ccncc3)c(-c3ccc(O)c(Cl)c3)n2)cc1)c1cc(C(F)(F)F)cc(C(F)(F)F)c1,6060 nM,> 25000 nM
COc1cc(C(=O)c2c(-c3ccccc3)oc3c(OC)cccc23)cc(OC)c1O,936 nM,7220 nM
COc1cc(/C=C/C(=O)Nc2ccc3c(c2)/C(=C\c2cccn2C)C(=O)N3)cc(OC)c1OC,3390 nM,25200 nM
COc1ccc(-c2c(-c3cc(OC)c(OC)c(OC)c3)nc3sc(C4CC4)nn23)cc1OC,1900 nM,31400 nM

SMILES,GI50,TGI
O=C(NC(=S)Nc1ccccn1)c1ccccc1,12500 nM,> 100000 nM
COc1cccc2c1C(=O)c1c(O)c3c(c(O)c1C2=O)CC(O)(/C(C)=N/NC(=O)CCCCC(=O)N/N=C(\C)C1(O)Cc2c(O)c4c(c(O)c2C(OC2CC(N)C(O)C(C)O2)C1)C(=O)c1c(OC)cccc1C4=O)CC3OC1CC(N)C(O)C(C)O1 (centres undefined),93.5 nM,251 nM
O=c1c2c([nH]c3ccccc13)CCCC2,16700 nM,> 100000 nM
C=C1CC2(OC1=O)C(=O)N(C)c1ccc(I)cc12 (centres undefined),537 nM,2760 nM
CCCCCCCCCC(=O)NC(C)(C)C(=O)N1CCC[C@H]1C(=O)N[C@@H](CC(C)C)C(=O)N[C@@](C)(CC)C(=O)N[C@@H](CCC(N)=O)C(=O)N[C@H](CCC(N)=O)C(=O)NC(C)(C)C(=O)NC(C)(C)C(=O)N[C@@H](CCC(N)=O)C(=O)N[C@H](CC(C)C)C(=O)N[C@H](CO)CC(C)C (Decanoyl-[Aib]PL[Iva]Q[dQ][Aib][Aib]Q[dL][Leu(ol)]),1790 nM,3340 nM
Brc1ccc(SCN(CSc2ccc(Br)cc2)Cc2ccccc2)cc1,6450 nM,30600 nM
CCCSc1ccc2nc(NC(=O)OC)[nH]c2c1,210 nM,702 nM
N#C/C(=C\c1cn(Cc2ccccc2)c2ccccc12)C(=O)Nc1ncc(Cc2ccccc2Cl)s1,1840 nM,4680 nM
COc1cc(/C=C/C(=O)c2ccc(Nc3nc(Nc4ccc(F)cc4)nc(Nc4ccc(Cl)cc4)n3)cc2)cc(OC)c1OC,1340 nM,3750 nM
CCOc1ccc(C(=O)Nc2ncc(Cc3ccc(F)cc3)s2)cc1,266 nM,> 100000 nM
COc1ccc2c(c1)oc1c(C)c3c(c(C)c12)C(=O)N(N)C3=O,> 100000 nM,> 100000 nM
CC1(C)CCC2(CC1)N[C@@H](C(=O)N[C@@H]1CC[C@@H](C(N)=O)OC1)[C@H](c1ccnc(Cl)c1F)[C@]21C(=O)Nc2cc(Cl)ccc21,2240 nM,5630 nM
C=C1c2c(C)nn(-c3ccc(OC)cc3)c2N(C)C23C[C@@H]1C1(C)c4c(C)nn(-c5ccc(OC)cc5)c4N(C)C(C)(C[C@H]12)C3 (some centres undefined),2500 nM,12800 nM
Oc1ccc(CSc2nnc(-c3ccc(Cl)cc3)n2-c2ccccc2)c2cccnc12,1190 nM,> 100000 nM
COC(=O)[C@@H](C)C[C@H](Cc1ccccc1)NC(=O)c1cccc([C@@H](C[C@H](C(C)C)N(C)C(=O)[C@@H](NC(=O)[C@H]2CCCCN2C)C2CC2)OC(C)=O)n1,3.33 nM,33300 nM and > 100000 nM
O=[N+]([O-])c1ccc(C(Br)c2ccc([N+](=O)[O-])cc2)cc1,11500 nM,25900 nM
Nc1n[n+](=O)c2ccccc2n1O,19600 nM,67000 nM
Cc1c([C@H](C(Cl)Cl)[C@H](O)[C@H]2C[C@H](C)C(=O)O2)ccc2c1C(=O)[C@H]1[C@H]2C[C@@H](Br)[C@@]23O[C@@H](CO[C@H]2O)CC13C (some centres undefined),129 nM,922 nM
